# Test results from US5462935A, “Cephalosporin compounds” (Lucky Limited, priority 1990, dated 1995).
# Legend:
# [1] = tested on: Proteus vulgaris ATCC 6059; test: minimal inhibitory concentration, two-fold agar dilution; assay type: cell-based; settings: ATCC6059, Muller-Hinton agar, 37° C., 20 hours
# Description: (§1) These NIC values were taken by employing a two-fold dilution method: that is, two-fold serial dilutions of each of the test compounds were made and dispersed in a Muller-Hinton agar medium; 2 μl of the standard test strain which had the 10^7 CFU (Colony Forming Unit) per ml was inoculated on the medium; and these were incubated at 37° C. for 20 hours.
# [2] = tested on: Pseudomonas aerugionsa ATCC 27853; test: as above; assay type: cell-based; settings: ATCC27853, Muller-Hinton agar, 37° C., 20 hours
# Description: as §1
# [3] = tested on: Staphylococcus aureus ATCC 6638p; test: as above; assay type: cell-based; settings: ATCC6638P, 20 h
# Description: as §1
# [4] = tested on: Enterobacter cloacae ATCC 27508; test: as above; assay type: cell-based; settings: ATCC27508, Muller-Hinton agar, 37° C., 20 hours
# Description: as §1
# [5] = tested on: ATCC 12228; test: as above; assay type: cell-based; settings: Staphylococcus faecalis, ATCC12228, 20 h
# Description: as §1
# [6] = tested on: Bacillus megaterium ATCC 9885; test: as above; assay type: cell-based; settings: Priestia megaterium, ATCC9885, 20 h
# Description: as §1
# [7] = tested on: Morganella morganii ATCC 8076h; test: as above; assay type: cell-based; settings: ATCC8076H, 20 h
# Description: as §1
# [8] = tested on: Micrococcus luteus ATCC 9341; test: as above; assay type: cell-based; settings: ATCC9341, Muller-Hinton agar, 37° C., 20 hours
# Description: as §1
# [9] = tested on: Pseudomonas aeruginosa ATCC 25619; test: as above; assay type: cell-based; settings: ATCC25619, Muller-Hinton agar, 37° C., 20 hours
# Description: as §1
# [10] = tested on: Klebsiella pneumoniae ATCC 10031; test: as above; assay type: cell-based; settings: ATCC10031, Muller-Hinton agar, 37° C., 20 hours
# Description: as §1
# [11] = tested on: Staphylococcus epidermidis ATCC 10537; test: as above; assay type: cell-based; settings: ATCC10537, Muller-Hinton agar, 37° C., 20 hours
# Description: as §1
# [12] = tested on: Pseudomonas aerugionsa ATCC 10145; test: as above; assay type: cell-based; settings: ATCC10145, Muller-Hinton agar, 37° C., 20 hours
# Description: as §1
# [13] = tested on: Proteus mirabilis ATCC 25933; test: as above; assay type: cell-based; settings: ATCC25933, Muller-Hinton agar, 37° C., 20 hours
# Description: as §1
# [14] = tested on: Bacillus cereus ATCC 11778; test: as above; assay type: cell-based; settings: Bacillus cereus, ATCC11778, 20 h
# Description: as §1
# [15] = tested on: Serratia marcescens ATCC 27117; test: as above; assay type: cell-based; settings: ATCC27117, Muller-Hinton agar, 37° C., 20 hours
# Description: as §1
# [16] = tested on: Shigella sonnei ATCC 11060; test: as above; assay type: cell-based; settings: ATCC11060, Muller-Hinton agar, 37° C., 20 hours
# Description: as §1
# [17] = tested on: Citrobacter freundii ATCC 8090; test: as above; assay type: cell-based; settings: ATCC8090, Muller-Hinton agar, 37° C., 20 hours
# Description: as §1
# [18] = tested on: Salmonella typhimurium ATCC 14028; test: as above; assay type: cell-based; settings: Salmonella enterica, Muller-Hinton agar, 37° C., 20 hours
# Description: as §1
# [19] = tested on: Streptococcus faecalis ATCC 29212; test: as above; assay type: cell-based; settings: Enterococcus faecalis, ATCC29212, Muller-Hinton agar, 37° C., 20 hours
# Description: as §1
# [20] = tested on: Acinetobacter calcoaceticus ATCC 15473; test: as above; assay type: cell-based; settings: ATCC15473, Muller-Hinton agar, 37° C., 20 hours
# Description: as §1
# [21] = tested on: Shigella flexneri ATCC 11836; test: as above; assay type: cell-based; settings: ATCC11836, Muller-Hinton agar, 37° C., 20 hours
# Description: as §1
# [22] = tested on: Enterobacter aerogenes ATCC 29751; test: as above; assay type: cell-based; settings: Klebsiella aerogenes, ATCC29751, 20 h
# Description: as §1
# [23] = in vivo absorbency test (plasma concentration, pharmacokinetic parameters); design: species or system SD rats (male); settings: rat, in vivo, iv, 20 mg/kg
# Description: In addition to the in vitro tests described above, in vivo absorbency tests for the two selected compounds of formulas (I-S-1) and (I-R-1), along with Ceftadizime, were carried out by administering intravenously, in a dose of 20 mg/kg, each of these two compounds into SD rats (male) weighing 220 to 340 g; […], which were analyzed by employing the bio-assay or agar well method. About 10 to 15 rats were used for each of the compounds.
# Notes: (1) Two-Compartment Model
# (3) Tested Animal: Rats(male; 220-340 g)
# [24] = acute toxicity test, intravenous; settings: mouse, in vivo, ICR mice, observed for 14 days
# Description: The results are shown in the last row of Table 2.
# [25] = tested on: Escherichia coli ATCC 25922; test: minimal inhibitory concentration, two-fold agar dilution; assay type: cell-based; settings: ATCC25922, Muller-Hinton agar, 37° C., 20 hours
# Description: as §1
# [26] = tested on: Escherichia coli ATCC 10536; test: as above; assay type: cell-based; settings: ATCC10536, Muller-Hinton agar, 37° C., 20 hours
# Description: as §1
# [27] = tested on: Providencia rettgeri ATCC 9250; test: as above; assay type: cell-based; settings: ATCC9250, Muller-Hinton agar, 37° C., 20 hours
# Description: as §1
SMILES,MIC [1],MIC [2],MIC [3],MIC [4],MIC [5],MIC [6],MIC [7],MIC [8],MIC [9],MIC [10],MIC [11],MIC [12],MIC [13],MIC [14],MIC [15],MIC [16],MIC [17],MIC [18],MIC [19],MIC [20],further results
"CC(C)(O/N=C(\C(=O)N[C@@H]1C(=O)N2C(C(=O)[O-])=C(C[n+]3ccccc3)CS[C@H]12)c1csc(N)n1)C(=O)O [CTZ, Ceftazidime, reference compound]",0.063 µg/mL,1 µg/mL,16 µg/mL,0.031 µg/mL,4 µg/mL,0.25 µg/mL,≤ 0.008 µg/mL,0.5 µg/mL,1 µg/mL,0.063 µg/mL,8 µg/mL,2 µg/mL,0.063 µg/mL,128 µg/mL,0.25 µg/mL,0.13 µg/mL,0.13 µg/mL,0.25 µg/mL,> 128 µg/mL,4 µg/mL,MIC [21]: 0.063 µg/mL; MIC [22]: 4 µg/mL; AUC [23]: 28100 ng·h/mL; concentration at 10 min [23]: 50000 ng/mL
"C[C@@H](O/N=C(\C(=O)NC1C(=O)N2C(C(=O)[O-])=C(CSc3nc(N)cc(N)[n+]3C)CS[C@H]12)c1csc(N)n1)C(=O)O (stereo partly drawn) [I-R-2, 7-[(Z)-2-(2-aminothiazol-4-yl)-2-[(R)-1-carboxyeth-1-oxyimino]acetamido]-3-[(4,6-diamino-1-methylpyrimidinium-2-yl)thiomethyl]-3-cephem-4-carboxylate]",0.031 µg/mL,1 µg/mL,4 µg/mL,0.016 µg/mL,2 µg/mL,1 µg/mL,≤ 0.008 µg/mL,0.5 µg/mL,2 µg/mL,0.031 µg/mL,2 µg/mL,2 µg/mL,0.031 µg/mL,> 128 µg/mL,0.063 µg/mL,0.031 µg/mL,0.063 µg/mL,0.13 µg/mL,> 128 µg/mL,4 µg/mL,LD50 at 336 h [24]: > 3000 mg/kg; MIC [25]: 0.031 µg/mL; MIC [26]: 0.063 µg/mL; MIC [27]: ≤ 0.008 µg/mL; MIC [21]: 0.031 µg/mL; MIC [22]: 1 µg/mL
"CC[n+]1c(N)cc(N)nc1SCC1=C(C(=O)[O-])N2C(=O)C(NC(=O)/C(=N\O[C@H](C)C(=O)O)c3csc(N)n3)[C@H]2SC1 (stereo partly drawn) [I-R-3, 7-[(Z)-2-(2-aminothiazol-4-yl)-2-[(R)-1-carboxyeth-1-oxyimino]acetamido]-3-[(4,6-diamino-1-ethylpyrimidinium-2-yl)thiomethyl]-3-cephem-4-carboxylate]",0.031 µg/mL,1 µg/mL,2 µg/mL,0.016 µg/mL,1 µg/mL,1 µg/mL,≤ 0.008 µg/mL,0.25 µg/mL,1 µg/mL,0.031 µg/mL,2 µg/mL,2 µg/mL,0.031 µg/mL,128 µg/mL,0.063 µg/mL,0.031 µg/mL,0.063 µg/mL,0.13 µg/mL,> 128 µg/mL,4 µg/mL,LD50 at 336 h [24]: > 3000 mg/kg; MIC [25]: 0.063 µg/mL; MIC [26]: 0.063 µg/mL; MIC [27]: ≤ 0.008 µg/mL; MIC [21]: 0.031 µg/mL; MIC [22]: 0.5 µg/mL
